Measurements as given in PMC3673949, “Small Molecule R1498 as a Well-Tolerated and Orally Active Kinase Inhibitor for Hepatocellular Carcinoma and Gastric Cancer Treatment via Targeting Angiogenesis and Mitosis Pathways” (PLoS ONE, 2013).
Read-outs that look alike come from different tables or passages of the source.

Legend:
MGC-803 xenograft = assay: Xenograft efficacy study; assay type: in vivo, BALB/C nu/nu nude mice; conditions: MGC-803, 25 mg/kg twice a day per oral gavage
HUVEC (FBS stimulated) = assay: HUVEC proliferation in 10% FBS; assay type: cell-based; conditions: Homo sapiens, 72 h
Experimental: Each cell line was seeded in a 96-well tissue culture plate (Corning, NY) at a predetermined density in 180 µL complete medium, attached overnight and treated by compound for another 72 h. Then the medium was discarded and replaced with 10% CCK-8 (Dojindo, Kumamoto, Japan) in complete medium, then incubated the plates for another 2 h. The OD450 was measured with SpectraMAX 190 spectrophotometer (MDS, Sunnyvale, CA). A background absorbance of ODblank was subtracted from all wells.
In VEGF-induced HUVEC proliferation assay, the HUVECs suspended in 170 µL EGM-2 with 0.5% FBS were seeded and incubated overnight. After the cells attached, 10 µL 1 µg/ml recombinant human VEGF 165 (R&D systems, Minneapolis, MN) was added to each well together with 20 µl compound solutions prepared in EGM-2 with 0.5% FBS. The CCK-8 assay as above was used for determination of cell viability.

[1] = Single dose pharmacokinetic (SDPK) study; assay type: in vivo; conditions: for Oral BA: micronized API suspension; for clearance / Vd / half-life: plasma; for clearance / Vd: iv, 5 mg/kg, single dose; for Vd: read-out: Vdss; for half-life: iv 5 mg/kg
Experimental: Blood samples were collected by retro-orbital puncture at pre-dose and 0.033, 0.083, 0.25,0.5, 1, 2, 4, 6, 8, and 24 hours post-dose. The plasma samples and the dose formulation were stored at −20°C until bioanalysis. The data acquisition and control system were created using Analyst 1.4 software from ABI Inc. The concentrations in plasma below the limit of quantitation (LOQ = 1 ng/mL) were designated as zero. […] For rat, dog and monkey SDPK, the blood samples were collected from jugular vein puncture.

tubulin = assay: In vitro tubulin polymerization assay; assay type: biochemical; conditions: 40 µM, OD340
Experimental: In vitro tubulin polymerization assay was performed as described previously.

402 kinases = assay: KINOMEScan kinase affinity profiling; assay type: binding; conditions: 1 µM, ATP around Km of each kinase; 359 wild-type kinases and 43 mutants
Experimental: The affinity of R1498 against 402 kinases was determined by KINOMEScan® (Ambit Biosciences, San Diego, CA) and data were presented as dissociation constant (Kd) values. The inhibition on kinase activity of Aurora kinases and VEGFR2 was further characterized by Z’-Lyte kinase activity assays under corresponding ATP concentrations.

BGC-823 xenograft = assay: Xenograft efficacy study; assay type: in vivo, BALB/C nu/nu nude mice
Experimental: Tumor cells were inoculated into the right flank of BALB/C nu/nu female nude mice (5∼6 weeks, 16∼18 g, obtained from Sino-British SIPPR/BK Lab. Animal Ltd, Shanghai, China) at optimal density based on our in-house validation study. After the tumor was established and reached 100∼150 mm^3, the mice were randomized into ten mice per group and received treatment according to the schedule. The tumor growth was recorded three times a week with the measurement of length (L) and width (W) by caliper, and calculated as tumor volume (TV, mm^3) = 0.5*L*W*W (mm). […] The tumor regression of individual mouse was defined - the tumor volume at the end was less than the tumor volume when treatment was initiated.

[2] = Dose range finding and toxicokinetic study; assay type: in vivo
Experimental: Dose range finding and toxicokinetic study was carried out in rats and Beagle dogs based on in vitro metabolites identification. Wistar rats (male: 3, female 3 in each group, from Vital River, Beijing, China) were fasted overnight, and then received test articles as 0, 6.25, 50 and 100 mg/kg twice a day per oral gavage for a 14-day continuous regimen. Motility observation was applied on a daily bases to find the maximum tolerant dose for the animals. The animals were sacrificed on d14, and the following toxicology observation were carried out including body weight changes, clinical observation, gross necropsy, hematology chemistry and histopathology. On day 1 and day 14, blood samples were obtained via jugular vein puncture from all animals (if alive, using EDTA-K2 tubes). Samples were mixed gently and placed on crushed wet-ice until centrifugation, which was carried out immediately. The samples were centrifuged for approximately 15 minutes at 4°C 2,700 rpm. The resultant plasma was separated, transferred to uniquely labeled clear polypropylene tubes and frozen immediately over solid carbon dioxide (dry ice) until transferred to approximately −80°C. Each animal was bled at the following time points: approximately 5 min, 15 min, 30 min, 1, 2, 4, 8 and 24 hours post first dose on the specific day. The drug concentrations in the plasma were determined by LC-MS/MS. The pharmacokinetic analysis was performed using WinNonlin software (Version 5.2, Pharsight Corporation, CA, USA), and the pharmacokinetic parameters were calculated using a Non-compartmental model method.
Beagle dogs (approximately 8–10 months, from Beijing Marshall Biotechnology Co. Ltd., Beijing, China) were subjected to the study protocol as described above. Each group has one male and one female dog, the dosages of test article were: 0, 1, 7.5 and 15 mg/kg, respectively.

[3] = Single dose pharmacokinetic (SDPK) study; assay type: in vivo; conditions: Nude Mouse
Experimental: Before the pharmacokinetic study, animals were randomly assigned to the sampling groups (3 animals per time point). Ten additional mice were used to collected plasma blank for calibration curves. The mice were fasted overnight before oral administration. […] The plasma samples and the dose formulation were stored at −20°C until bioanalysis. The data acquisition and control system were created using Analyst 1.4 software from ABI Inc. The concentrations in plasma below the limit of quantitation (LOQ = 1 ng/mL) were designated as zero. […] For rat, dog and monkey SDPK, the blood samples were collected from jugular vein puncture.

[4] = Metabolite profile in pooled liver microsomes; assay type: in vitro ADME
Experimental: Supplementary file pone.0065264.s005.doc: Table S4 Metabolite profiles in pooled liver microsomes. Pooled liver microsomes were incubated with R1498 and the metabolites were identified to predict the most close species to human. (DOC) Click here for additional data file.

## COc1ccc2c(c1)C(c1ccccc1Cl)=Nc1c(n[nH]c1C)N2 [R1498]
MGC-803 xenograft; day of study termination
  Final TGI%: 99%
MGC-803 xenograft; before vs after treatment
  Body weight changes%: 14%
MGC-803 xenograft; mice with regression/group
  Tumor Regression: 5/10
HUVEC (FBS stimulated)
  IC50: 2060 nM
[1]; Dog, 50-100 mg/kg
  Oral BA: 32-45 (50-100 mg/kg) %
[1]; Monkey, 12.5 mg/kg
  Oral BA: 4 (12.5 mg/kg) %
[1]; Rat, 25-400 mg/kg
  Oral BA: 9-44 (25-400 mg/kg) %
[1]; Dog
  clearance: 1.9 mL/min/kg
  Vd: 2.7 L/kg
  half-life: 16.8 h
[1]; Monkey
  clearance: 25.3 mL/min/kg
  Vd: 2.1 L/kg
  half-life: 1.5 h
[1]; Rat
  clearance: 5.6 mL/min/kg
  Vd: 1.6 L/kg
  half-life: 3.2 h
tubulin
  effect on microtubule polymerization: neither stabilized nor destabilized microtubule polymerization
402 kinases
  number of kinases with inhibition rate over 80% out of 402 kinases: 39
BGC-823 xenograft; BGC-823, 25 mg/kg twice a day per oral gavage, day of study termination (Table S2)
  Final TGI%: 94%
BGC-823 xenograft; BGC-823, 25 mg/kg twice a day per oral gavage, before vs after treatment
  Body weight changes%: 2%
BGC-823 xenograft; BGC-823, 25 mg/kg twice a day per oral gavage, mice with regression/group
  Tumor Regression: 0/10
BGC-823 xenograft; BGC-823, 6.25 mpk, bid, PO
  Final TGI%: 78%
BGC-823 xenograft; BGC-823, 12.5 mpk, bid, PO
  Final TGI%: 88%
BGC-823 xenograft; BGC-823, 25 mpk, bid, PO (Table S3)
  Final TGI%: 94%
[2]; both sexes, dog, in vivo, po, beagle dogs (F/M), 2-week DRF, bid dosing
  MTD at 2 week: > 15 mg/kg
[2]; both sexes, dog, plasma, po, 15 mg/kg, beagle dogs, at highest dose, read-out: MTD AUC0-24
  AUC(0-t): > 111 µg·h/mL
[2]; dogs, 0, 1, 7.5, 15 mg/kg, 2-week DRF
  Histopathology results: no significant findings at all doses
[2]; female dog
  dose at which body weight loss began: 7.5 mg/kg
[3]; 10-100 mg/kg, micronized API suspension
  Oral BA: 44-92 (10-100 mg/kg) %
[3]; male, plasma, iv, 2 mg/kg, single dose
  clearance: 6.3 mL/min/kg
[3]; male, plasma, iv, 2 mg/kg, single dose, read-out: Vdss
  Vd: 2 L/kg
[3]; male, plasma, iv 2 mg/kg
  half-life: 4 h
[4]; Dog pooled liver microsomes
  Parent (M0): 99.0
  Total M%: 1.0%
[4]; Human pooled liver microsomes
  Parent (M0): 91.9
  Total M%: 8.1%
[4]; Monkey pooled liver microsomes
  Parent (M0): 43.3
  Total M%: 56.7%
[4]; Mouse pooled liver microsomes
  Parent (M0): 94.8
  Total M%: 5.2%
[4]; Rat pooled liver microsomes
  Parent (M0): 90.8
  Total M%: 9.2%
